In the supplement of paper PMC11451515:

What was measured:
Settings in all cases: 48 h
SEM cells [1] = assay: AUC of viability dose-response curve (% viability x log10 dose units); higher = less sensitive
How it was run: (§1)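 Leukemia cells adapted to each medium were seeded in 1536-well plates (500 or 1000 cells/well). They were dosed with library compounds in DMSO at 11 threefold doses, 47 μM to 0.79 nM, for 48 h at 37°C. CellTiter-Glo One luminescence was normalised per plate to DMSO and cell-free wells. Area under the curve was integrated by trapezoidal rule over log10 doses on a four-parameter log-logistic fit; curves exceeding full viability were scaled and curves failing quality control removed.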

P12-Ichikawa [2] = assay: as above
How it was run: as §1

NOMO1 [3] = assay: as above
How it was run: as §1

SEM cells [4] = assay: cell viability relative to DMSO control; higher = less cytotoxic
How it was run: (§2)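 Library compounds in DMSO were pin-dosed into 1536-well plates (5 μl) holding NOMO1 or SEM (500 cells/well) or P12-Ichikawa (1000 cells/well) leukemia cells, across an 11-point threefold series of 47 μM to 0.79 nM. Each cell line had been adapted for at least four passages in each medium. CellTiter-Glo One luminescence was read after 48 h at 37°C. Viability is the per-plate percentage relative to DMSO wells, with cell-free wells as background.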

P12-Ichikawa [5] = assay: as above
How it was run: as §2

NOMO1 [6] = assay: as above
How it was run: as §2

COc1cc(/C=C/C(=O)CC(=O)/C=C/c2ccc(O)c(OC)c2)ccc1O
AUC of viability dose-response curve
Settings	NOMO1 [3]	P12-Ichikawa [2]	SEM cells [1]
HPLM + 10% dialyzed FBS	419	416	406
RPMI 5 mM glucose + 10% FBS	440	431	409
RPMI 5 mM glucose + 10% dialyzed FBS	441	433	417

cell viability [%]
Settings	NOMO1 [6]	P12-Ichikawa [5]	SEM cells [4]
HPLM + 10% dialyzed FBS, 0.000781 µM	105	99.1	66.6
HPLM + 10% dialyzed FBS, 0.00234 µM	105	96.9	96.9
HPLM + 10% dialyzed FBS, 0.00702 µM	118	108	108
HPLM + 10% dialyzed FBS, 0.0211 µM	111	104	98.8
HPLM + 10% dialyzed FBS, 0.0632 µM	112	110	102
HPLM + 10% dialyzed FBS, 0.19 µM	123	105	99.5
HPLM + 10% dialyzed FBS, 0.569 µM	114	109	104
HPLM + 10% dialyzed FBS, 1.71 µM	115	106	118
HPLM + 10% dialyzed FBS, 5.12 µM	99.8	96.4	90.4
HPLM + 10% dialyzed FBS, 15.4 µM	42.3	27.8	15.1
HPLM + 10% dialyzed FBS, 46.1 µM	5.01	5.27	5.19
RPMI 5 mM glucose + 10% FBS, 0.000781 µM	97.4	102	77.5
RPMI 5 mM glucose + 10% FBS, 0.00234 µM	93.6	104	114
RPMI 5 mM glucose + 10% FBS, 0.00702 µM	103	98.4	119
RPMI 5 mM glucose + 10% FBS, 0.0211 µM	108	113	128
RPMI 5 mM glucose + 10% FBS, 0.0632 µM	106	113	137
RPMI 5 mM glucose + 10% FBS, 0.19 µM	105	110	120
RPMI 5 mM glucose + 10% FBS, 0.569 µM	102	105	120
RPMI 5 mM glucose + 10% FBS, 1.71 µM	115	104	128
RPMI 5 mM glucose + 10% FBS, 5.12 µM	102	99.1	99.5
RPMI 5 mM glucose + 10% FBS, 15.4 µM	73.2	61.2	23.6
RPMI 5 mM glucose + 10% FBS, 46.1 µM	7.35	4.23	5.59
RPMI 5 mM glucose + 10% dialyzed FBS, 0.000781 µM	105	98.8	72.8
RPMI 5 mM glucose + 10% dialyzed FBS, 0.00234 µM	105	102	96.8
RPMI 5 mM glucose + 10% dialyzed FBS, 0.00702 µM	106	105	106
RPMI 5 mM glucose + 10% dialyzed FBS, 0.0211 µM	106	110	108
RPMI 5 mM glucose + 10% dialyzed FBS, 0.0632 µM	118	104	107
RPMI 5 mM glucose + 10% dialyzed FBS, 0.19 µM	112	98.2	115
RPMI 5 mM glucose + 10% dialyzed FBS, 0.569 µM	104	104	107
RPMI 5 mM glucose + 10% dialyzed FBS, 1.71 µM	104	113	118
RPMI 5 mM glucose + 10% dialyzed FBS, 5.12 µM	101	102	90.8
RPMI 5 mM glucose + 10% dialyzed FBS, 15.4 µM	79.9	60.3	34.8
RPMI 5 mM glucose + 10% dialyzed FBS, 46.1 µM	10.1	4.18	5.02

Cn1c(=O)c2c(ncn2CC(O)CO)n(C)c1=O (stereo unspecified)
AUC of viability dose-response curve
Settings	NOMO1 [3]	P12-Ichikawa [2]	SEM cells [1]
HPLM + 10% dialyzed FBS	470	435	440
RPMI 5 mM glucose + 10% FBS	462	449	469
RPMI 5 mM glucose + 10% dialyzed FBS	455	460	421

cell viability [%]
Settings	NOMO1 [6]	P12-Ichikawa [5]	SEM cells [4]
HPLM + 10% dialyzed FBS, 0.000781 µM	106	113	87.4
HPLM + 10% dialyzed FBS, 0.00234 µM	109	112	101
HPLM + 10% dialyzed FBS, 0.00702 µM	114	110	116
HPLM + 10% dialyzed FBS, 0.0211 µM	119	111	92.6
HPLM + 10% dialyzed FBS, 0.0632 µM	121	114	104
HPLM + 10% dialyzed FBS, 0.19 µM	136	116	109
HPLM + 10% dialyzed FBS, 0.569 µM	103	115	113
HPLM + 10% dialyzed FBS, 1.71 µM	120	111	111
HPLM + 10% dialyzed FBS, 5.12 µM	130	108	96
HPLM + 10% dialyzed FBS, 15.4 µM	103	117	108
HPLM + 10% dialyzed FBS, 46.1 µM	111	124	124
RPMI 5 mM glucose + 10% FBS, 0.000781 µM	119	109	106
RPMI 5 mM glucose + 10% FBS, 0.00234 µM	98	104	96.7
RPMI 5 mM glucose + 10% FBS, 0.00702 µM	100	118	120
RPMI 5 mM glucose + 10% FBS, 0.0211 µM	109	119	101
RPMI 5 mM glucose + 10% FBS, 0.0632 µM	104	124	120
RPMI 5 mM glucose + 10% FBS, 0.19 µM	108	122	123
RPMI 5 mM glucose + 10% FBS, 0.569 µM	103	127	113
RPMI 5 mM glucose + 10% FBS, 1.71 µM	103	117	111
RPMI 5 mM glucose + 10% FBS, 5.12 µM	103	128	111
RPMI 5 mM glucose + 10% FBS, 15.4 µM	95.3	134	111
RPMI 5 mM glucose + 10% FBS, 46.1 µM	58.2	128	122
RPMI 5 mM glucose + 10% dialyzed FBS, 0.000781 µM	116	112	93.1
RPMI 5 mM glucose + 10% dialyzed FBS, 0.00234 µM	116	114	120
RPMI 5 mM glucose + 10% dialyzed FBS, 0.00702 µM	115	114	99.3
RPMI 5 mM glucose + 10% dialyzed FBS, 0.0211 µM	128	116	110
RPMI 5 mM glucose + 10% dialyzed FBS, 0.0632 µM	118	114	116
RPMI 5 mM glucose + 10% dialyzed FBS, 0.19 µM	115	115	113
RPMI 5 mM glucose + 10% dialyzed FBS, 0.569 µM	128	124	121
RPMI 5 mM glucose + 10% dialyzed FBS, 1.71 µM	120	117	133
RPMI 5 mM glucose + 10% dialyzed FBS, 5.12 µM	111	125	135
RPMI 5 mM glucose + 10% dialyzed FBS, 15.4 µM	99.4	126	125
RPMI 5 mM glucose + 10% dialyzed FBS, 46.1 µM	62.7	119	137
